From patent US20200291100A1, “TREATMENT OF AGE-RELATED AND MITOCHONDRIAL DISEASES BY INHIBITION OF HIF-1 ALPHA FUNCTION” (President and Fellows of Harvard College, priority 2012, published 2020)
Entries after “also recorded” stand apart in the source; their conditions may differ.

Tested on: 6- and 22-month-old C57BL/6J mice
Experiment: NMN treatment of 6- and 22-month-old mice, skeletal muscle readouts
Type: in vivo, mouse
Conditions: NMN for one week
From the text: C57BL/6J mice of 6, 22, or 30 months of age were obtained from the National Institutes of Aging mouse aging colony. Additionally 22 months old caloric restricted mice were also obtained from the National Institutes of Aging mouse aging colony. EGLN1 KO, SIRT1 KO and SIRT1 OE mice were generated as previously described (Minamishima et al., 2008; Price et al., 2012). Mice were acclimated for at least one-week prior to sacrifice. 3, 6, 22 and 24-month-old mice were given interperitoneal (IP) injections of 500 mg NMN/kg body weight per day or the equivalent volume of PBS for 7 consecutive days at 5:00 pm and 7:00 am on day 8 and sacrificed 4 hr after last injection.
Cytochrome c oxidase activity was polarographically determined based on the 02 consumption upon cytochrome c oxidation, as previously described (Brautigan et al., 1978). The reaction was carried out at 25° C. in 1.3 mL of standard respiratory medium (as in mitochondrial respiration) supplemented with 2 μM rotenone, 10 μM oxidized cytochrome c, 0.3 mg TritonX-100. Following addition of the sample, the reaction was initiated by adding 5 mM ascorbate plus 0.25 mM tetramethylphenylene-diamine (TMPD).
ATP content was measured with a commercial kit according to the manufacturer's instructions (Roche).
RNA from skeletal muscle tissue and C2C12 cells were extracted with RNeasy mini kit (Qiagen) according to the instructions and quantified using the NanoDrop 1000 spectrophotometer (Thermo Scientific). cDNA was synthesized with the iSCRIP cDNA synthesis kit (BioRad) using 600 ng of RNA. Quantitative RT-PCR reactions were performed using 1 μM of primers and LightCycler® 480 SYBR Green Master (Roche) on an LightCycler® 480 detection system (Roche). Calculations were performed by a comparative method (2-ΔCT) using 18S as an internal control. For mtDNA analysis, total DNA was extracted with DNeasy blood and tissue kit (Qiagen). mtDNA was amplified using primers specific for the mitochondrial cytochrome c oxidase subunit 2 (COX2) gene and normalized to genomic DNA by amplification of the ribosomal protein s18 (rps18) nuclear gene. Primers were designed using the IDT software (IDT) and the primer sequences can be found in Table 1.
Protein extracts from tissue or C2C12 cells were obtained by lysis in ice-cold lysis buffer (150 mM NaCl, 10 mM Tris HCl (pH 7.4), 1 mM EDTA, 1 mM EGTA, 1% Triton X-100, 0.5% NP-40) supplemented with a cocktail of protease and phosphatase inhibitors (Roche). Protein content was determined by the Bradford protein assay (Biorad), and 50 μg proteins were run on SDS-PAGE under reducing conditions. The separated proteins were then electrophoretically transferred to a polyvinylidene difluoride membrane (Perkin-Elmer). […] The immunostaining was detected using horseradish peroxidase-conjugated anti-rabbit or anti-mouse immunoglobulin for 1 h at room temperature.
NAD^+ from skeletal muscle was quantified with a commercially available kit (BioVision) according to the manufacturer's instructions and as described before (Gomes et al., 2012).
It was shown above that decreased levels of NAD^+ associated with age invokes a SIRT1 dependent pseudohypoxic response that disrupts mitochondrial homeostasis. Therefore, artificially boosting NAD^+ levels in old mice should restore mitochondrial homeostasis by reducing HIF-1α levels and restoring the expression of mitochondrial-encoded ETC components. Administration of NMN, a compound recently shown to increase NAD^+ levels in a variety of tissues (Yoshino et al., 2011), to 6- and 22-month-old C57BL/6J mice for one week increased levels of cellular NAD^+ in both the young and old mice were by 2-fold. The boost in the treated 22-month-old mice resembled the untreated 6-month-olds (FIG. 17A).

## NC(=O)c1ccc[n+]([C@@H]2O[C@H](COP(=O)([O-])O)[C@@H](O)[C@H]2O)c1 [NMN, nicotinamide mononucleotide]
gastrocnemius, qPCR, old mice
  expression of mitochondrial-encoded genes: restored
gastrocnemius, old mice
  ATP levels: increase
  COX activity: increase
  HIF-1α protein (immunoblot): reversed; also recorded: reduced the level of HIF-1α
  VHL protein (immunoblot): reversed the age-induced decline
Old mice
  lactate levels in the skeletal muscle: suppressed the increase
Skeletal muscle of old mice, immunoblot
  muscle wasting markers Atrogin-1 and MuRF1: completely reversed
Skeletal muscle of old mice, qPCR
  expression of inflammation markers: completely reversed
Soleus of old mice, immunoblot
  phosphorylation of AKT and IRS-1: increasing the phosphorylation
Soleus of old mice
  age-induced insulin resistance in the skeletal muscle: reverse age-induced insulin resistance
Young and old mice
  levels of cellular NAD+: 2 fold
